Experimental findings from patent US9994623B2, “Entomotoxic polypeptides” (INSTITUT NATIONAL DE LA RECHERCHE AGRONOMIQUE, priority 2013, dated 2018) are described below.

One experiment addresses PA1b-binding site. The experiment is described as follows: Affinity for the PA1b-binding site, ligand binding assay with 125I-labeled toxin. To be noted: ligand binding with toxin labeled with iodine 125I; dash = no binding in the range of concentrations tested. As for the experimental part: The affinity for the PA1b-binding site was determined by means of ligand binding assays using a toxin labeled with iodine ^125I, as previously described (Gressent et al., Eur J Biochem, 270, 2429-35, 2003).

Experiment [1] relates to Spodoptera frugiperda Sf9 cells. The experiment is described as follows: Entomotoxicity (LC50) on cultured Sf9 cells, Celltiter-Blue viability test. To be noted: for toxicity / entomotoxic properties (in words): Sf9 cells, compared with reference PA1b. The class given is cell-based. As for the experimental part: The entomototoxic properties were determined by evaluation of the LC50 (50% lethal concentration) on cultures of Spodoptera frugiperda Sf9 cells, as described by Rahioui et al. (Biochimie, 89, 1539-43, 2007). The cells were cultured at 27° C. in medium from Lonza supplemented with 5% fetal calf serum (FCS) and 0.1% gentamicin, then seeded into 96-well plates, 24 h before the experiments (15,000 cells/wells) and exposed to increasing concentrations of synthetic peptide. After 24 h, the cell viability was determined using the Celltiter-Blue viability test (Promega), in accordance with the manufacturer's instructions. After the addition of the dye, the cells were incubated at 27° C. for 4 h. The absorbance was then measured at 570 and 600 nm using a microplate reader (MR 7000, Dynatech Laboratories Inc., USA).
In general terms: Alamar Blue is a resazurin reagent that responds to reducing activity.

Bridge positions count the residues as written; N and C are the ends. Ends that are not written are not given here. Peptide text beside a SMILES is read from it.

The compound `CC[C@H](C)[C@@H]1NC(=O)[C@H](Cc2ccccc2)NC(=O)[C@@H]2CSSC[C@@H]3NC(=O)[C@H](C)NC(=O)[C@H](CCC(=O)O)NC(=O)CNC(=O)[C@@H](NC(=O)[C@H](CCCCN)NC(=O)[C@H](C)N)CSSC[C@H](NC(=O)CNC(=O)[C@H](CC(=O)O)NC(=O)CNC(=O)[C@H](C)NC(=O)[C@H](CC(N)=O)NC(=O)[C@H](CSSC[C@@H](C(=O)N[C@@H](C)C(=O)N[C@@H](CCC(N)=O)C(=O)N[C@@H](CC(C)C)C(=O)N[C@@H](CO)C(=O)N[C@H](C(=O)O)[C@@H](C)O)NC(=O)[C@H](Cc4ccccc4)NC(=O)CNC(=O)[C@@H]4CCCN4C(=O)[C@H](CC(C)C)NC(=O)[C@H]([C@@H](C)O)NC(=O)[C@H](CC(C)C)NC(=O)[C@H](Cc4ccc(O)cc4)NC(=O)[C@H](C)NC(=O)[C@H](CC(=O)O)NC(=O)[C@H]([C@@H](C)O)NC1=O)NC(=O)[C@H](Cc1ccccc1)NC(=O)[C@H](CC(N)=O)NC(=O)[C@H](Cc1ccccc1)NC(=O)[C@H](CCC(N)=O)NC(=O)[C@H]([C@@H](C)O)NC(=O)[C@H](CC(=O)O)NC3=O)C(=O)N[C@@H](CCCNC(=N)N)C(=O)N2` [AS40] (H-AKCGEACDTQFNFCNAGDGCRCFITDAYLTLPGFCAQLST-OH; disulfide 3-20, 7-22, 14-35 (inferred); N-terminus and C-terminus assumed) gave a Ki on PA1b-binding site of 0.0103 ± 0.002 µM. The “toxicity / entomotoxic properties (in words)” value in experiment [1] is reported as “toxicity comparable to that of the reference PA1b peptide”.

In turn, `CC[C@H](C)[C@@H]1NC(=O)[C@H](C(C)C)NC(=O)[C@H](CC(C)C)NC(=O)CNC(=O)[C@H](C(C)C)NC(=O)[C@@H]2CCCN2C(=O)[C@H]([C@@H](C)CC)NC(=O)[C@@H]2CSSC[C@@H]3NC(=O)[C@H](C(C)C)NC(=O)CNC(=O)[C@H](CC(N)=O)NC(=O)[C@@H](NC(=O)[C@H](CO)NC(=O)[C@H](C)N)CSSC[C@H](NC(=O)[C@H](C)NC(=O)[C@H](CO)NC(=O)[C@H]([C@@H](C)O)NC(=O)CNC(=O)[C@H](CSSC[C@@H](C(=O)N[C@@H](CCCNC(=N)N)C(=O)N[C@@H](CC(N)=O)C(=O)N4CCC[C@H]4C(=O)N[C@@H](CO)C(=O)NCC(=O)O)NC(=O)[C@H](Cc4ccc(O)cc4)NC(=O)CNC1=O)NC(=O)[C@@H]1CCCN1C(=O)[C@@H]1CCCN1C(=O)[C@H](CCSC)NC(=O)[C@H](CCC(=O)O)NC(=O)[C@H](Cc1ccccc1)NC(=O)[C@@H]1CCCN1C(=O)[C@H](CO)NC3=O)C(=O)N[C@@H](CCCNC(=N)N)C(=O)N2` [PA1b, reference compound] (H-ASCNGVCSPFEMPPCGTSACRCIPVGLVIGYCRNPSG-OH; disulfide 3-20, 7-22, 15-32 (inferred); N-terminus and C-terminus assumed) had an inhibition constant (Ki) on PA1b-binding site of 0.017 ± 0.0011 µM.

On PA1b-binding site, “EFCSSVGSFCSPFNTNPCGYLGNCRCVPYYLYGGTCENPFG (disulfide 3-24, 10-26, 18-36 (inferred)) [EG41]” returned an inhibition constant (Ki) of 0.0728 ± 0.0027 µM. For the same compound, in experiment [1], the “toxicity / entomotoxic properties (in words)” value is listed as “toxicity comparable to that of the reference PA1b peptide”.

Turning to “DECWGPCSVLQTPPCPLSKCYCIPLFLVVGYCSHASS [DS37]”, affinity on PA1b-binding site was put at a Ki of 0.694 ± 0.002 µM. Moreover, the “toxicity / entomotoxic properties (in words)” value in experiment [1] was “do not have entomotoxic properties”.

In the case of “QSCIGFCSVFDSKPLCGSSRCRCNKPLNNPFVGICERRPST [QT41]”, the “toxicity / entomotoxic properties (in words)” value in experiment [1] was “do not have entomotoxic properties”.

With “GQCARVGMRCSRALPNPCGDIVTCRCVHLHLVGSTCIDYTGDGL [GL44]”, the “toxicity / entomotoxic properties (in words)” value in experiment [1] is “do not have entomotoxic properties”.

With `CC[C@H](C)[C@@H]1NC(=O)CNC(=O)[C@H](CO)NC(=O)[C@@H](NC(=O)[C@H](CC(=O)O)NC(=O)[C@H](C)N)CSSC[C@@H]2NC(=O)[C@H](CC(=O)O)NC(=O)[C@H](CO)NC(=O)[C@H](CO)NC(=O)[C@H](CCCNC(=N)N)NC(=O)[C@@H]3CSSC[C@@H](C(=O)N[C@H](C(=O)N[C@@H](CC(N)=O)C(=O)N4CCC[C@H]4C(=O)N[C@H](C(=O)N[C@@H](CO)C(=O)O)[C@@H](C)CC)[C@@H](C)CC)NC(=O)[C@H](Cc4ccccc4)NC(=O)CNC(=O)CNC(=O)[C@H]([C@@H](C)CC)NC(=O)[C@H](CC(C)C)NC(=O)[C@H](C)NC(=O)[C@H]([C@@H](C)CC)NC(=O)[C@@H]4CCCN4C(=O)[C@H]([C@@H](C)CC)NC(=O)[C@H](CSSC[C@H](NC1=O)C(=O)N[C@@H](CO)C(=O)N1CCC[C@H]1C(=O)N[C@@H](Cc1ccccc1)C(=O)N[C@@H](CCC(=O)O)C(=O)N[C@@H](CCSC)C(=O)N1CCC[C@H]1C(=O)N1CCC[C@H]1C(=O)N3)NC(=O)[C@H](CCCNC(=N)N)NC2=O` [AS37] (H-ADCSGICSPFEMPPCRSSDCRCIPIALIGGFCINPIS-OH; disulfide 3-20, 7-22, 15-32 (inferred); N-terminus and C-terminus assumed), the affinity on PA1b-binding site corresponds to a Ki of 0.015 ± 0.002 µM. The “toxicity / entomotoxic properties (in words)” value in experiment [1] is on record as “toxicity comparable to that of the reference PA1b peptide”.

In the case of “ASCPNVGAVCSPFETKPCGNVKDCRCLPWGLFFGTCINPTG (disulfide 3-24, 10-26, 18-36) [AG41]”, the inhibition constant Ki at PA1b-binding site is 0.0013 ± 0.0006 µM. Moreover, in experiment [1] (fold versus pea PA1b), the “toxicity relative to PA1b” value was “close to ten times higher than that of PA1b”.

For orientation: Ki means the dissociation constant of the complex between target and ligand, obtained from inhibition or displacement. Read a high Ki as a looser hold on the target.
